Laboratory results as given in patent US11345678B2, “Benzopyrazole compound used as RHO kinase inhibitor” (MEDSHINE DISCOVERY INC., priority 2018, dated 2022).

Assays:
[1] = biological target: ROCK1 (Homo sapiens (Human), UniProt Q13464); assay: In vitro inhibitory activity against ROCK protein kinase (33P-ATP filter-binding), ROCK1; format: biochemical; details: 1 nM ROCK protein kinase, 20 μM Long S6 Kinase substrate peptide
Method: (§1) 1. In Vitro Evaluation of the Inhibitory Activity Against ROCK Protein Kinase
(§2) Experimental purpose: to detect the inhibitory IC50 value of the compound against ROCK protein kinase.
(§3) Assay buffer solution: 20 mM 4-hydroxyethylpiperazine ethanesulfonic acid (pH 7.5), 10 mM magnesium chloride, 1 mM ethylene glycol-bis-(2-aminoethyl)tetraacetic acid, 0.02% polyethylene glycol monododecyl ether, 0.02 mg/mL bovine serum albumin, 0.1 mM sodium vanadate, 2 mM dithiothreitol, 1% DMSO.
(§4) The freshly prepared buffer solution was added to ROCK protein kinase substrate (Long S6 Kinase substrate peptide), at a concentration of 20 μM, then 1 nM ROCK protein kinase was added thereto and stirred evenly. Echo550 was used to add a series of DMSO dilutions containing the test compound (starting from 10 μM, serially diluted by 3 times), the solution was pre-incubated at room temperature for 20 minutes, then ^33P-ATP (radiation intensity 10 μCi/μL) was added to initiate the reaction, and the reaction was performed at room temperature for two hours. Then the solution was filtered by P81 ion exchange paper (Whatman #3698-915) and washed with 0.75% phosphoric acid. The radiation intensity was determined by Filter-Binding method.
(§5) The protein kinase inhibitory activity of the compound was expressed as the remaining protein kinase activity relative to the blank substrate (simply DMSO). Prism software package (GraphPad Software, San Diego Calif., USA) was used to calculate IC50 value and the curve.

[2] = biological target: ROCK2 (Homo sapiens (Human), UniProt O75116); assay: In vitro inhibitory activity against ROCK protein kinase (33P-ATP filter-binding), ROCK2; format: biochemical; details: 1 nM ROCK protein kinase, 20 μM Long S6 Kinase substrate peptide
Chain of ROCK2 (O75116 whole entry): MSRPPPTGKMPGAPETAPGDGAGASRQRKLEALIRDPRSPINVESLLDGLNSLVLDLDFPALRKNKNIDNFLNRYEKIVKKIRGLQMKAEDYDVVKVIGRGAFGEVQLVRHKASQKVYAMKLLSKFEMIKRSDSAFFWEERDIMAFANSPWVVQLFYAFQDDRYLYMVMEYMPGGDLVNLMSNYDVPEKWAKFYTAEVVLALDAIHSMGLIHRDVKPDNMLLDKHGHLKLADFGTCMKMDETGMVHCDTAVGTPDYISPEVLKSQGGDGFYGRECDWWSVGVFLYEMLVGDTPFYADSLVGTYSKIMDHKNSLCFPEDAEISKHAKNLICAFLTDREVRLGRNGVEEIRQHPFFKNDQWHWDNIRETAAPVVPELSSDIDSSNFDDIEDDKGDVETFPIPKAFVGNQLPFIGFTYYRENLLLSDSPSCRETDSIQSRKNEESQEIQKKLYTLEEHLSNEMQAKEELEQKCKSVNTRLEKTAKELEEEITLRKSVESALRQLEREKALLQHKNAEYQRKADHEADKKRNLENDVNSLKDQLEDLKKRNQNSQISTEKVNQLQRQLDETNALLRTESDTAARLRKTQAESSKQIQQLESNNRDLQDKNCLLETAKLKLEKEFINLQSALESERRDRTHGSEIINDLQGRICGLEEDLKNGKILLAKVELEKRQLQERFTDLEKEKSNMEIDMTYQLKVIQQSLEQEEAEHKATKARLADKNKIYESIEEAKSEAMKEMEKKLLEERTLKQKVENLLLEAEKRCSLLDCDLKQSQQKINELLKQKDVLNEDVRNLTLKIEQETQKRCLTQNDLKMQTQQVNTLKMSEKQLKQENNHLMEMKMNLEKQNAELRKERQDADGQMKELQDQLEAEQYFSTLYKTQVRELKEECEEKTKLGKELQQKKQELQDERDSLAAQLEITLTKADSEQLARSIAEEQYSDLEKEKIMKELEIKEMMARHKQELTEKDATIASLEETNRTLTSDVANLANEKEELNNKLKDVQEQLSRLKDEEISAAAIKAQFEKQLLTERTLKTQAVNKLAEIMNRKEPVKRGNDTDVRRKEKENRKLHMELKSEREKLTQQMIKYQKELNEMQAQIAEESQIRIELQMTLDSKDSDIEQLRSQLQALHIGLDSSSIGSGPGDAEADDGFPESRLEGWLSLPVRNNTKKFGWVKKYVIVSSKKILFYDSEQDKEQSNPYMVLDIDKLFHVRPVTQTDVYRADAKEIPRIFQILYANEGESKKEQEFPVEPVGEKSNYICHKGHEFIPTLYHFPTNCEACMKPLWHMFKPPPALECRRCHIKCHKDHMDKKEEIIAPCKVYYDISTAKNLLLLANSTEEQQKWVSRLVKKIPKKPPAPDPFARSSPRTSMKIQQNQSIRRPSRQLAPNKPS
Method: as §1, §2, §3, §4, §5

[3] = Pharmacokinetics in SD rats (intravenous injection and oral administration); format: in vivo; details: rat, plasma, male SD rats; for clearance / half-life / Vd: intravenous 1 mg/kg; for clearance: read-out: Clearance rate CL; for half-life: read-out: Half-life T1/2 (IV) (converted); for Vd: read-out: Tissue distribution Vdss; for bioavailability: oral 2 mg/kg vs intravenous 1 mg/kg, read-out: Bioavailability F; for AUC(0-t) / Cmax: oral 2 mg/kg; for AUC(0-t): read-out: Area under the drug-time curve AUC0-last PO; for Cmax: read-out: Peak concentration Cmax
Method: 4. Evaluation of the Pharmacokinetics of the Compound
Experimental purpose: to study the pharmacokinetics of the compounds in SD rats in vivo
SD rat (male, 7 to 10 weeks old, WTLH/SLAC)
The rodent pharmacokinetic characteristics of the compounds after intravenous injection and oral administration were tested by standard protocols. In the experiment, the candidate compounds were formulated into 0.2 mg/mL clear solutions and were given to the rats by a single intravenous injection and oral administration. The vehicles of the intravenous injection and oral administration were both 5% DMSO/95% (10% hydroxypropyl P-cyclodextrin) aqueous solution. This project used four male SD rats and two of them were administered by intravenous injection at a dosage of 1 mg/kg, plasma samples were collected at 0.0833, 0.25, 0.5, 1, 2, 4, 6, 8, and 24 hours after administration, the other two rats were administered orally and intragastrically at a dosage of 2 mg/kg, plasma samples were collected at 0.25, 0.5, 1, 2, 3, 4, 6, 8, 24 hours after administration. The whole blood samples were collected within 24 hours and centrifuged at 3000 g for 15 minutes, and the supernatants were separated to give plasma samples. The plasma samples were added with an acetonitrile solution containing internal standard to precipitate protein, mixed thoroughly and centrifuged, and the supernatants were taken for injection. The blood drug concentration was quantitatively analyzed by LC-MS/MS analysis method, and the pharmacokinetic parameters (such as peak concentration (Cmax), clearance rate (CL), half-life (T1/2), […] (Vdss), area under the drug-time curve (AUC0-last), and bioavailability (F), etc.) were calculated.

Chain of ROCK1 (Q13464 whole entry): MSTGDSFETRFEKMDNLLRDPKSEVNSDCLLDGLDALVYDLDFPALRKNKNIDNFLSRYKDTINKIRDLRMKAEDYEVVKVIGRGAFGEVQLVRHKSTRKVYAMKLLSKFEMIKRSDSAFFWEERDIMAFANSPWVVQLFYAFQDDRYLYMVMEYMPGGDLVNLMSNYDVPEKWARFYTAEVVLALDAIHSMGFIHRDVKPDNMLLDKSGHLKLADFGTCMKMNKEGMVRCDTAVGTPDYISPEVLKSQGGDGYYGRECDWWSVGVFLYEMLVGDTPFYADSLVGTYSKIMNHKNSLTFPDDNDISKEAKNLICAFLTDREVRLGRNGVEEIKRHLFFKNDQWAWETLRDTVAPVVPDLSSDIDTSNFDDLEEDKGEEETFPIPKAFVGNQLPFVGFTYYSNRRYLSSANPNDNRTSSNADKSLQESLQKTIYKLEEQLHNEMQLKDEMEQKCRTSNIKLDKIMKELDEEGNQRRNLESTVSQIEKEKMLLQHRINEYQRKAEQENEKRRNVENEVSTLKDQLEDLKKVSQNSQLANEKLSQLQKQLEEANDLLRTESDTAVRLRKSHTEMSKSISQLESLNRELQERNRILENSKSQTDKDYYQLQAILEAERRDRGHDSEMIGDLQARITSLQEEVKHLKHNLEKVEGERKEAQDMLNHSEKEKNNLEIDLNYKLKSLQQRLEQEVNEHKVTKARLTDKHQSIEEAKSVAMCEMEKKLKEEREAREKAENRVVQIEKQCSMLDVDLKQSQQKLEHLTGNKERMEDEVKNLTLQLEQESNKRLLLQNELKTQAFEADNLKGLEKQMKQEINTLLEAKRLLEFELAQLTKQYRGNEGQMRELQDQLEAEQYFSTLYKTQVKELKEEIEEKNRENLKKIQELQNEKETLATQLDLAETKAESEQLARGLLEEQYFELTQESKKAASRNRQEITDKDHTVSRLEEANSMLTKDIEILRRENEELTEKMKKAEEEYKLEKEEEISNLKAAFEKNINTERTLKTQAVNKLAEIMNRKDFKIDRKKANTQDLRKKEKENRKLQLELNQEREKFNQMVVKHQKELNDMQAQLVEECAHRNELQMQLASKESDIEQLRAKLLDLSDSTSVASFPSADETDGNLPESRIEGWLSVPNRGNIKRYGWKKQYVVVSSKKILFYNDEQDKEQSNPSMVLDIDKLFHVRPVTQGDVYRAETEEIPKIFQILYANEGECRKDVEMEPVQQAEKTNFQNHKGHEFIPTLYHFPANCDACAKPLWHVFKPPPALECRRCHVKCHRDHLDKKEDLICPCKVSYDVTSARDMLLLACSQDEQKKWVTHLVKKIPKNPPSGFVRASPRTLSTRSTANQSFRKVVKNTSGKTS

Structure (SMILES) | IC50 [1] | IC50 [2] | clearance [3] | half-life [3] | Vd [3] | bioavailability [3] | AUC(0-t) [3] | Cmax [3]
COc1cccc(C(CN)NC(=O)c2cc(-c3ccc4[nH]nc(C)c4c3)ccn2)c1 (centres unmarked) [Compound 40] | 57 nM | 4 nM | 23.4 mL/min/kg | 3.58 h | 6 L/kg | 21% | 0.758 µM·h | 117 nM
COc1cccc(C(NC(=O)c2cccc(-c3ccc4[nH]nc(C)c4c3)c2)C(C)(C)N)c1 (centres unmarked) [Compound 64] | 798 nM | 46 nM | 88.3 mL/min/kg | 2.83 h | 16.4 L/kg | 12% | 0.1 µM·h | 17 nM
COc1cccc(C(CO)NC(=O)c2cccc(-c3ccc4[nH]nc(F)c4c3)c2)c1 (centres unmarked) [Compound 26] | 113 nM | 16 nM | 14 mL/min/kg | 2.5 h | 1.72 L/kg | 51% | 3.04 µM·h | 752 nM
COc1cccc(C(CN)NC(=O)c2cc(-c3ccc4[nH]nc(C)c4c3)ccc2OC(F)(F)F)c1 (centres unmarked) [Compound 49] | 1200 nM | 31 nM | 23.1 mL/min/kg | 4.82 h | 8.31 L/kg | 60% | 1.33 µM·h | 157 nM
Cc1cccc(C(CN)NC(=O)c2cccc(-c3ccc4[nH]nc(C)c4c3)c2)c1 (centres unmarked) [Compound 35] | 317 nM | 13 nM | 25 mL/min/kg | 3.83 h | 6.78 L/kg | 21% | 0.734 µM·h | 117 nM
COc1cccc(C(CNS(C)(=O)=O)NC(=O)c2cccc(-c3ccc4[nH]nc(C)c4c3)c2)c1 (centres unmarked) [Compound 72] | 587 nM | 12 nM | 55.7 mL/min/kg | 0.62 h | 1.79 L/kg | 11% | 0.148 µM·h | 99.4 nM

Further compounds by falling IC50 [1], results first:

IC50 [1] | IC50 [2] | clearance [3] | half-life [3] | Vd [3] | bioavailability [3] | AUC(0-t) [3] | Cmax [3] | Structure (SMILES)
253 nM | 23 nM | 30.8 mL/min/kg | 2.37 h | 4.72 L/kg | 11% | 0.266 µM·h | 55.6 nM | Cc1n[nH]c2ccc(-c3cccc(C(=O)NC(CN)c4cccc(F)c4F)c3)cc12 (centres unmarked) [Compound 61]
193 nM | 11 nM | 50.8 mL/min/kg | 2.74 h | 10.5 L/kg | 20.9% | 0.306 µM·h | 50.7 nM | CNCC(NC(=O)c1cc(-c2ccc3[nH]nc(C)c3c2)ccn1)c1cccc(OC)c1 (centres unmarked) [Compound 66]
89 nM | 5 nM | 6.24 mL/min/kg | 2.91 h | 1.15 L/kg | 45% | 6.3 µM·h | 1180 nM | COc1cccc(C(CO)NC(=O)c2cccc(-c3ccc4[nH]nc(C)c4c3)c2)c1 (centres unmarked) [Compound 25]
73 nM | 10 nM | 50.9 mL/min/kg | 1.33 h | 5.05 L/kg | 10% | 0.156 µM·h | 36.4 nM | COc1cccc(C(CN(C)C)NC(=O)c2cccc(-c3ccc4[nH]nc(C)c4c3)c2)c1 (centres unmarked) [Compound 36]
